Results reported in patent US10300064B2, “Organic compounds” (INTRA-CELLULAR THERAPIES, INC., priority 2014, dated 2019).

How the values were obtained:
r-hPDE2A = target: T1, r-hPDE2A (Homo sapiens, UniProt O00408); assay: Measurement of PDE2 inhibition in vitro (IMAP fluorescence polarization, FL-cAMP substrate); format: biochemical; conditions: 1 μM cGMP
T1 construct: host or cells: HEK293 cells, transient transfection; soluble cytosolic fraction used
Method: Measurement of PDE2 Inhibition In Vitro
r-hPDE2A (Accession No. NM_002599, Homo sapiens phosphodiesterase 2A, cGMP-stimulated, transcript variant 1) A mammalian expression cloning vector with recombinant cDNA copy of the gene is purchased from Origene. Protein is expressed via transient transfection of HEK293 cells. The cells are harvested at 48 hours after transfection, washed once with TBS buffer (50 mM Tris-HCl, pH 7.5, 150 mM NaCl), then lysed by sonication in cold homogenization buffer (50 mM Tris-HCl, pH 7.5, 5 mM MgCl2, lx protease inhibitor cocktail). The homogenate is centrifuged for […] at 15,000 g at 4° C. to obtain the soluble cytosolic fraction. The protein concentration of the cytosol is determined using BCA Protein Assay Kit (Pierce) with bovine serum albumin as a standard.
PDE2A is assayed with FL-cAMP as substrate. An enzyme titration is first performed to determine the working concentration of PDE. The concentration of the enzyme giving activity of 100 ΔmP in the absence of inhibitor is deemed an appropriate working concentration for PDE.
PDE enzyme is diluted in a standard reaction buffer (10 mM Tris-HCl pH 7.2, 10 mM MgCl2, 0.1% BSA, 0.05% NaN3) according to the titration curve. For PDE2 assay the reaction buffer is supplemented with 1 μM cGMP to fully activate the enzyme. 99 μl of diluted enzyme solution is added into each well in a flat bottom 96-well polystyrene plate and then 1 μl of test compound dissolved in 100% DMSO is added. The compounds are mixed and pre-incubated with the enzyme for 10 min at room temperature.
The FL-cNMP conversion reaction is initiated by addition of substrate (45 nM final). Enzyme and inhibitor mix (16 μl) and substrate solution (4 μl of 0.225 μM) are combined in a 384-well microtiter plate. The reaction is incubated in the dark at room temperature for 15 min. The reaction is halted by addition of 60 μl of binding reagent (1:400 dilution of IMAP beads in binding buffer supplemented with 1:1800 dilution of antifoam) to each well of the 384-well plate. The plate is incubated at room temperature for 1 hour to allow IMAP binding to proceed to completion, and then placed in an Envision multimode microplate reader (PerkinElmer, Shelton, Conn.) to measure the fluorescence polarization (Δmp).
A decrease in cAMP concentration, measured as decreased Amp, is indicative of inhibition of PDE activity. […] IC50 values are estimated using nonlinear regression software, fitting a four-parameter one-site dose-response model (XLFit; IDBS, Cambridge, Mass.). […]
The total fluorescence intensity of each sample well is measured to calculate the average and standard deviation. If the total fluorescence intensity of any sample well is not within the range of Average±3SD, the mp value of that particular well is discarded. […]

[1] = Pharmacokinetic study in mice (plasma and brain availability); format: in vivo; conditions: single oral dose 10 mg/kg PO, 0.25-4h, FIG. 1
Method: FIG. 1 illustrats the plasma and brain levels in mice dosed with 10 mg/kg P.O. of the compound of Example 1 over time.
Mice are given a single oral dose of the compound to be tested (10 mg/kg, PO) and plasma and brain availability are measured (0.25-4h) using HPLC and LC-MS using methods analogous to those described in Zhao et al., J. Chromatogr. B. Analyt. Technol. Biomed. Life Sci. (2005) 819(1):73-80 and Appels, N. M., et al., Rapid Commun. Mass Spec. 2005. 19(15): p. 2187-92.

Wistar rats = assay: Object recognition task, memory performance of Wistar rats; format: in vivo, rat; conditions: male Wistar rats, oral, 2 h before learning
Method: The Effects of Treatment with PDE2 Inhibitors on Memory Performance of Wistar Rats in the Object Recognition Task
The memory-enhancing effects of the compound of Example 1 are tested in an animal model of cognition, the object recognition task. See, Ennaceur, A., Delacour, J., 1988. A new one-trial test for neurobiological studies of memory in rats. 1: Behavioral data. Behav. Brain Res. 31, 47-59. Rats remember which object they have explored in a previous trial when they are tested one hour later. However, when a 24 h inter-trial interval is used, they are not able to remember which object was presented to them in the first trial. It is tested whether the compound of Example 1 would attenuate this time-induced object memory deficit, when given 2 h before the first trial. The compounds are given to 2-3-months-old male Wistar rats.
The compound of Example 1 is injected orally (2 ml/kg) 2 h before learning, at doses of 0, 0.3, 1, 3 and 10 mg/kg.

PDE5 = PDE5 (Homo sapiens, UniProt O76074); assay: Selectivity for PDE2 over PDE5; format: biochemical
Method: (§1) Using the IMAP procedure described or similarly described above, we screened a proprietary PDE-focused compound library to identify novel compounds with nanomolar PDE2 inhibitory activities. […] The compounds are moreover selective for PDE2; the compound of Example 4 is tested and shown to be selective for PDE2 over PDE1, PDE3, PDE4D, PDE5, PDE6, PDE7B, PDE8A, PDE9A, PDE10A and PDE11A by greater than 20-fold.

PDE3 = assay: Selectivity for PDE2 over PDE3; format: biochemical
Method: as §1

PDE1 = assay: Selectivity for PDE2 over PDE1; format: biochemical
Method: as §1

PDE7B = PDE7B (Homo sapiens, UniProt Q9NP56); assay: Selectivity for PDE2 over PDE7B; format: biochemical
Sequence of PDE7B (Q9NP56 whole entry, species assumed): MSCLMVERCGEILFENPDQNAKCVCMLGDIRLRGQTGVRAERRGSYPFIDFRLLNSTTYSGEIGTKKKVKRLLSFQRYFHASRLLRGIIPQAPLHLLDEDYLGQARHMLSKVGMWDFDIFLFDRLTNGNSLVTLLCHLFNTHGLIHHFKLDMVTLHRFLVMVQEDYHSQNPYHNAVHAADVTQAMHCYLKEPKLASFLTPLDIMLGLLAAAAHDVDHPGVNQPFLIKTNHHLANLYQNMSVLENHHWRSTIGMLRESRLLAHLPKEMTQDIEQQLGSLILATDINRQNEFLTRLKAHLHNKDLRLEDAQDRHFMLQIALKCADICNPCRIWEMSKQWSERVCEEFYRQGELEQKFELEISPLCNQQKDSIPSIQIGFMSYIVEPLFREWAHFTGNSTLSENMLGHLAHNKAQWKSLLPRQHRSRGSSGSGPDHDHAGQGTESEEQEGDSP
Method: as §1

PDE6 = assay: Selectivity for PDE2 over PDE6; format: biochemical
Method: as §1

PDE4D = PDE4D (Homo sapiens, UniProt Q08499); assay: Selectivity for PDE2 over PDE4D; format: biochemical
Sequence of PDE4D (Q08499 whole entry, species assumed): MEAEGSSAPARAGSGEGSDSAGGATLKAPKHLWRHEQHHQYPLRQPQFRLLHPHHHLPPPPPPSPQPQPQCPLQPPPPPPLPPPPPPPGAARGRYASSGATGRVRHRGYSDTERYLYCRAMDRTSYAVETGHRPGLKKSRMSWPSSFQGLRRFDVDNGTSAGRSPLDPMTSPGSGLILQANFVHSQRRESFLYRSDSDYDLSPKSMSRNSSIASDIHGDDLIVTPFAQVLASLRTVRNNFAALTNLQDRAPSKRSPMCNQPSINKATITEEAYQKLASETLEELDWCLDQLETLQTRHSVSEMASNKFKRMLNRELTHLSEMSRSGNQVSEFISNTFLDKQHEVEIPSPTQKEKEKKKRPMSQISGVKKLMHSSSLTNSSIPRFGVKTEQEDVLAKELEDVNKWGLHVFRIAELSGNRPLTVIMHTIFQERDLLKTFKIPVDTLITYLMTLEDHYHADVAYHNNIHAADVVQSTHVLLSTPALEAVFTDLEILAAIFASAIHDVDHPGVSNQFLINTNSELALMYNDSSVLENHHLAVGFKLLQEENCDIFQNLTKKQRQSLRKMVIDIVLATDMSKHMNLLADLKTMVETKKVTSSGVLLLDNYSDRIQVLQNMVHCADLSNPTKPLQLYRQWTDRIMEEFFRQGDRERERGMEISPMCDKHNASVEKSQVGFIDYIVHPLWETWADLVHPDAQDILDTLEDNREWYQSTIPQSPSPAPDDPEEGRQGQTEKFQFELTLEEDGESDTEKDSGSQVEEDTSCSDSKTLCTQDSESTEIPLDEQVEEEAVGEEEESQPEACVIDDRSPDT
Method: as §1

PDE11A = PDE11A (Homo sapiens, UniProt Q9HCR9); assay: Selectivity for PDE2 over PDE11A; format: biochemical
Method: as §1

PDE8A = PDE8A (Homo sapiens, UniProt O60658); assay: Selectivity for PDE2 over PDE8A; format: biochemical
Sequence of PDE8A (O60658 whole entry, species assumed): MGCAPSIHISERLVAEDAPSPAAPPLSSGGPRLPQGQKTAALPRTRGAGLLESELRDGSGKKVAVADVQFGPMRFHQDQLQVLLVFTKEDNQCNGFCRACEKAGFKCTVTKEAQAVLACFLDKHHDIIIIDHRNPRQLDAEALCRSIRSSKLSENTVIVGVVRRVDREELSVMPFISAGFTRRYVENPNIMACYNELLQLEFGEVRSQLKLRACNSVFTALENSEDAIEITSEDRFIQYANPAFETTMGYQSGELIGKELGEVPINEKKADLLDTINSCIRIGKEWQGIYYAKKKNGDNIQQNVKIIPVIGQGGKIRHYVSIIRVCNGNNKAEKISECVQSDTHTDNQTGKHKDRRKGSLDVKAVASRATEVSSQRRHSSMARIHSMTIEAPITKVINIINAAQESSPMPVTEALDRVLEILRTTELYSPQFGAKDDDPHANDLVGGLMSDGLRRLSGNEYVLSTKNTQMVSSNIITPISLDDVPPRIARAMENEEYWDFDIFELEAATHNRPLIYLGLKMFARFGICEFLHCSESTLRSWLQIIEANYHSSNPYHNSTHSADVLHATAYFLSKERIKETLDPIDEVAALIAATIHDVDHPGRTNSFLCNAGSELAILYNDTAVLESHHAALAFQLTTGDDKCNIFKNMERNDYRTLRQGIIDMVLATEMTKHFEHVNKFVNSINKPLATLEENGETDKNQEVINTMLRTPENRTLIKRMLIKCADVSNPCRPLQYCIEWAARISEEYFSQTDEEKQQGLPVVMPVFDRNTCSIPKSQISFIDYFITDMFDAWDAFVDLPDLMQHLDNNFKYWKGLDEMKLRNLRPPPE
Method: as §1

PDE9A = PDE9A (Homo sapiens, UniProt O76083); assay: Selectivity for PDE2 over PDE9A; format: biochemical
Sequence of PDE9A (O76083 whole entry, species assumed): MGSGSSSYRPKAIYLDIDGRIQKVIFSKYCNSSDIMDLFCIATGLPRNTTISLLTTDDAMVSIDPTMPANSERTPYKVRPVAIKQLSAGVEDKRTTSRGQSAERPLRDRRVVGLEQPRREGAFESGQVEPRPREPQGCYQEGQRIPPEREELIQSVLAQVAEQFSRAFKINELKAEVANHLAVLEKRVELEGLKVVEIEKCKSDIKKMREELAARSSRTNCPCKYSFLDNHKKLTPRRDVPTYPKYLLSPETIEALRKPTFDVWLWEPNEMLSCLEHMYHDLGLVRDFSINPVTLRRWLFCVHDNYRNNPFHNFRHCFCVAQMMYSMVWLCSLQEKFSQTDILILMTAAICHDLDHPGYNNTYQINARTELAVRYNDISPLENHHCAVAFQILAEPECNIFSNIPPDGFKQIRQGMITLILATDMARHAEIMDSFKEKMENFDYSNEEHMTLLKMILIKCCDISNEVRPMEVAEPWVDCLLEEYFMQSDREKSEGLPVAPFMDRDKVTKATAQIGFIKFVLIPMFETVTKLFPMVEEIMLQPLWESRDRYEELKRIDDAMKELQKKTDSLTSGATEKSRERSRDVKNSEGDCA
Method: as §1

PDE10A = PDE10A (Homo sapiens, UniProt Q9Y233); assay: Selectivity for PDE2 over PDE10A; format: biochemical
Sequence of PDE10A (Q9Y233 whole entry, species assumed): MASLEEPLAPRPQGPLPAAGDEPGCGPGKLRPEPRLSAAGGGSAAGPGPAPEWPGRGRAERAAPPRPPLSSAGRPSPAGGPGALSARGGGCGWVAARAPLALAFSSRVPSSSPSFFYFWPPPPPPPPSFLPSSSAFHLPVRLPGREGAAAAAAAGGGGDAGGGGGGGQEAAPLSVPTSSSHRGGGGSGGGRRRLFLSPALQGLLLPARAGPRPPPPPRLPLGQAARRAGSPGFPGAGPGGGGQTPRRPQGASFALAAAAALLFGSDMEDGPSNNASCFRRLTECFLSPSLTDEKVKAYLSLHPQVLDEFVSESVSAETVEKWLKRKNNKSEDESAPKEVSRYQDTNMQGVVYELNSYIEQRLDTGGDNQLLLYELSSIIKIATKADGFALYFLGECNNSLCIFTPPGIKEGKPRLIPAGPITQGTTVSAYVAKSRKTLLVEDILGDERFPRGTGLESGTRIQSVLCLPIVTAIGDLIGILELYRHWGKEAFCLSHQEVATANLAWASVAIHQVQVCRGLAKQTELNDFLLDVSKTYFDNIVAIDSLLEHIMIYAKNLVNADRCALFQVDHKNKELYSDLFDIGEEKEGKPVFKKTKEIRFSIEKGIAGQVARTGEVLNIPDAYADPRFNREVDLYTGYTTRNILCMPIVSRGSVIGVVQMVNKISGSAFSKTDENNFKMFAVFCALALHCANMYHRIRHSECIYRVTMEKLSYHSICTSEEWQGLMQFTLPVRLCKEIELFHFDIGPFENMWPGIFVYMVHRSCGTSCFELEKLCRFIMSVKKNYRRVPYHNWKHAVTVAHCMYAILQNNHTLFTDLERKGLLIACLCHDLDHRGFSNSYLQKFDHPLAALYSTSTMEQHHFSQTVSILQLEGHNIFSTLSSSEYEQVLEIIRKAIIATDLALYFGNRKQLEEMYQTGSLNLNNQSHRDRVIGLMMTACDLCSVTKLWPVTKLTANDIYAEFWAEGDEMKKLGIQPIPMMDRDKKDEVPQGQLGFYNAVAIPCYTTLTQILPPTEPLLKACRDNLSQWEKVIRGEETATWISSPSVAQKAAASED
Method: as §1

T1 sequence (O00408 whole entry): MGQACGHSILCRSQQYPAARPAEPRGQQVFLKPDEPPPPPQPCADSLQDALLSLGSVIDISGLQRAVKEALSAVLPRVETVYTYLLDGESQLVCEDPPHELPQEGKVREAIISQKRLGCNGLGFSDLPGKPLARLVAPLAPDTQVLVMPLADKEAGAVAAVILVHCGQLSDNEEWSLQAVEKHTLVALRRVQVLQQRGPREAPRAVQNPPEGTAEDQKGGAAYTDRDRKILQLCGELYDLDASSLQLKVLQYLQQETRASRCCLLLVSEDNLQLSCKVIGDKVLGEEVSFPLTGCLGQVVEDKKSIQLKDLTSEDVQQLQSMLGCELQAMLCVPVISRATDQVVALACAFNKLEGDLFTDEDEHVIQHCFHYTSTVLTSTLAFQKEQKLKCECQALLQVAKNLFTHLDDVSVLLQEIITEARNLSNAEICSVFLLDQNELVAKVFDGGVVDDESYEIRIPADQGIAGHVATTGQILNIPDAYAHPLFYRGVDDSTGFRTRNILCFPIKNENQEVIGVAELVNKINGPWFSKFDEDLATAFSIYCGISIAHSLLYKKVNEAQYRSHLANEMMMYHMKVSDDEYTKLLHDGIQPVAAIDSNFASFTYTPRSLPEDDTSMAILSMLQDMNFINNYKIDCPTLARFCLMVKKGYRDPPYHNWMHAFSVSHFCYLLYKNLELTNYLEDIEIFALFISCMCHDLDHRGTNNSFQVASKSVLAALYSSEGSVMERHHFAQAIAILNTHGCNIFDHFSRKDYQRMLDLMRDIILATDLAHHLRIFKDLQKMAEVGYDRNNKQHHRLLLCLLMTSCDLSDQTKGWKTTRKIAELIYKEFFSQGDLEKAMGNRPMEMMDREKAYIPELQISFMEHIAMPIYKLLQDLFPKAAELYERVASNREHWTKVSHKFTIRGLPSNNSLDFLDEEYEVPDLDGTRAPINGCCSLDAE

SMILES: Cc1nn(-c2cnn(C)c2-c2ccc(C(F)(F)F)cc2)c2c(N3CCC3)ncnc12 [Example 1, 7-(Azetidin-1-yl)-3-methyl-1-(1-methyl-5-(4-(trifluoromethyl)phenyl)-1H-pyrazol-4-yl)-1H-pyrazolo[4,3-d]pyrimidine]
- IC50 (r-hPDE2A): 23.1 nM
- brain access (plasma and brain availability) [1]: good brain access
- memory improvement (object memory, 24 h inter-trial interval) (Wistar rats; 0.3 mg/kg): intermediate memory improvement
- time-dependent forgetting (object memory, 24 h inter-trial interval) (Wistar rats; 1.0 mg/kg): completely prevent the time-dependent forgetting
- memory improvement (object memory, 24 h inter-trial interval) (Wistar rats; 3.0 mg/kg): intermediate memory improvement

SMILES: CCc1ccc(-c2c(-n3nc(C)c4ncnc(N5CCC5)c43)cnn2C)cc1 [Example 4, 7-(Azetidin-1-yl)-1-(5-(4-ethylphenyl)-1-methyl-1H-pyrazol-4-yl)-3-methyl-1H-pyrazolo[4,3-d]pyrimidine]
- selectivity for PDE2 over PDE5 (PDE5): greater than 20 fold
- IC50 (r-hPDE2A): 18.5 nM
- selectivity for PDE2 over PDE3 (PDE3): greater than 20 fold
- selectivity for PDE2 over PDE1 (PDE1): greater than 20 fold
- selectivity for PDE2 over PDE7B (PDE7B): greater than 20 fold
- selectivity for PDE2 over PDE6 (PDE6): greater than 20 fold
- selectivity for PDE2 over PDE4D (PDE4D): greater than 20 fold
- selectivity for PDE2 over PDE11A (PDE11A): greater than 20 fold
- selectivity for PDE2 over PDE8A (PDE8A): greater than 20 fold
- selectivity for PDE2 over PDE9A (PDE9A): greater than 20 fold
- selectivity for PDE2 over PDE10A (PDE10A): greater than 20 fold

SMILES: COc1ccc(-c2c(-n3nc(C)c4ncnc(N5CCC5)c43)cnn2C)c(C)c1 [Example 2, 7-(Azetidin-1-yl)-1-(5-(4-methoxy-2-methylphenyl)-1-methyl-1H-pyrazol-4-yl)-3-methyl-1H-pyrazolo[4,3-d]pyrimidine]
- IC50 (r-hPDE2A): 92 nM

SMILES: Cc1nn(-c2cnn(C)c2-c2ccc(C3CC3)cc2)c2c(N3CCC3)ncnc12 [Example 3, 7-(Azetidin-1-yl)-1-(5-(4-cyclopropylphenyl)-1-methyl-1H-pyrazol-4-yl)-3-methyl-1H-pyrazolo[4,3-d]pyrimidine]
- IC50 (r-hPDE2A): 9.5 nM
